Measured values from patent publication US9921215B2, “Method for detecting ligand using FRET biosensor” (KOREA RESEARCH INSTITUTE OF BIOSCIENCE AND BIOTECHNOLOGY, priority 2009, dated 2018).

Assays:
[1] = target: T1, CaraFY-PR arabinose FRET biosensor: fusion protein ECFP-ARBP-EYFP of E. coli MG1655 ARBP (arabinose-binding protein) (Escherichia coli, UniProt P02924); assay: Ligand titration of FRET biosensor CaraFY-PR (arabinose sensor) at its critical temperature; design: 6xHis (C); made in house; host or cells: E. coli
Source text: Likewise, in order to construct an expression vector of CaraFY-PR, a biosensor for measuring arabinose, ECFP gene was amplified by PCR using primers of SEQ ID NOs: 3 and 10, and ARBP gene was amplified by PCR using a chromosomal DNA, extracted from E. coli MG1655, as a template, and primers of SEQ ID NOs: 11 and 12.
The amplified ECFP and ARBP genes were amplified by PCR using primers of SEQ ID NOs: 3 and 12, thus obtaining a synthetic gene of ECFP-ARBP. The ECFP-ARBP gene was inserted into the ECFP-MBP gene position of the pECMY-BII expression vector, thereby constructing a pECaraFY-PR vector.
(§1) The fluorescence of the FRET biosensors was measured using the fluorescence analysis system Cary Eclipse (Varian Inc., Mulgrave, Australia) under the conditions in which the proteins of each biosensor were controlled to the same concentration of 0.5 μM in 0.5 ml of PBS buffer (pH 7.4). […]
(§2) Also, Δratio that defines the detection capability of the FRET biosensor was determined according to the following equation 4: Δratio=ratiomax−ratiomin [Equation 4]
(§3) The titration curves of the FRET biosensors were expressed as Sigmoidal curves using the 4-parameter Hill equation of Sigmaplot 10.0 (Systat software Inc., USA) based on changes in the ratio measured while increasing the ligand concentration from 1 nM to 10 mM. […]
Target sequence in this assay (P02924 other isoform, or with tags, fused parts or gaps): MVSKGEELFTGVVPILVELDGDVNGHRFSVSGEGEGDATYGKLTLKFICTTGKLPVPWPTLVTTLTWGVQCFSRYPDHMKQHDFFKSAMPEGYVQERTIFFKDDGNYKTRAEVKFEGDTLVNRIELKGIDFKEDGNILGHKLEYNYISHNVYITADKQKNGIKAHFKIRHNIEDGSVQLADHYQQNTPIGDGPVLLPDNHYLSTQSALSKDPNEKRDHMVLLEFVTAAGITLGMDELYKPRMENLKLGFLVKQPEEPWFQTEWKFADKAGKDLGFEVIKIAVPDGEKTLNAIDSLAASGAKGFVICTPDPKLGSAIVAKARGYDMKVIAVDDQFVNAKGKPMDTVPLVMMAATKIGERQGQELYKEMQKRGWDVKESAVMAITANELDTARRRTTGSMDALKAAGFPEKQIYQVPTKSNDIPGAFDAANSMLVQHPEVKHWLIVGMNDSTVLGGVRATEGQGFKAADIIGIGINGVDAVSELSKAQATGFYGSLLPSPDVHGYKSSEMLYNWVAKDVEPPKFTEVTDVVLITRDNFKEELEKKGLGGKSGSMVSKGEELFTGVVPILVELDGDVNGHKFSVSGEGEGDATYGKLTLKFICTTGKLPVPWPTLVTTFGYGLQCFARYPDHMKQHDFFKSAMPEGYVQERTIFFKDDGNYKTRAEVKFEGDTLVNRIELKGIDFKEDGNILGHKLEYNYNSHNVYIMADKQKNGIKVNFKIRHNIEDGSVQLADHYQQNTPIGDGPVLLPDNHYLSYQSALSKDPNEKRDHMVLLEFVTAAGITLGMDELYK

[2] = target: T2, CmglBY-SS glucose FRET biosensor: fusion protein ECFP-GGBP-EYFP of E. coli MG1655 GGBP (galactose/glucose-binding protein) (Escherichia coli, UniProt P0AEE5); assay: Specificity of the glucose FRET biosensor for various sugars; details: critical temperature 50 °C; ligand 100 μM, 1 mM, 10 mM
Method: (§4) Analysis of the specificities of the FRET biosensors for various ligands was performed using 19 kinds of sugars, including monosaccharides, polyscaccharides and sugar alcohols.
(§5) To measure the specificities of the sensors, each of the purified FRET biosensors was added to 0.5 ml of PBS buffer (pH 7.4) at a concentration of 0.5 μM such that the concentration of each ligand reached 100 μM, 1 mM, 10 mM, etc. In 3 minutes after the peltier device surrounding the cuvette has reached each of the critical temperatures determined in Example 3, fluorescence was measured.
Target sequence in this assay (P0AEE5 24-332 limits assumed): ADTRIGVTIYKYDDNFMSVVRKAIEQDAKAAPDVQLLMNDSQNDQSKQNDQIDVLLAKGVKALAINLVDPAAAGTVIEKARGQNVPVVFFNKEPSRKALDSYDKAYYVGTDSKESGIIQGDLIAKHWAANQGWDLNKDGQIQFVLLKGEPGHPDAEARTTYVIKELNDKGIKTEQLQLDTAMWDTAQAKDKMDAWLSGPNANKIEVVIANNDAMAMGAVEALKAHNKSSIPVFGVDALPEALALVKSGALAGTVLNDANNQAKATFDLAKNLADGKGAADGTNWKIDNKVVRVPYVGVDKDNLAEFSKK

[3] = target: T1, CaraFY-PR arabinose FRET biosensor: fusion protein ECFP-ARBP-EYFP of E. coli MG1655 ARBP (arabinose-binding protein); assay: Specificity of the arabinose FRET biosensor for various sugars; details: critical temperature 49 °C; ligand 100 μM, 1 mM, 10 mM
Method: as §4, §5

[4] = target: CalsBY-QV allose FRET biosensor: fusion protein ECFP-ALBP-EYFP of E. coli MG1655 ALBP (allose-binding protein) (Escherichia coli, UniProt P39265); assay: Specificity of the allose FRET biosensor for various sugars; details: critical temperature 49 °C; ligand 100 μM, 1 mM, 10 mM; ribose compared with measurement at 25 °C in U.S. Pat. No. 7,432,353
Method: as §4, §5

[5] = target: T2, CmglBY-SS glucose FRET biosensor: fusion protein ECFP-GGBP-EYFP of E. coli MG1655 GGBP (galactose/glucose-binding protein); assay: Ligand titration of FRET biosensor CmglBY-SS (glucose sensor) at its critical temperature; design: 6xHis (C); made in house; host or cells: E. coli
Source text: In addition, an expression vector of CmglBY-SS, a biosensor for measuring glucose used in the present invention, was constructed in the following manner.
First, ECFP gene was amplified by PCR using a pECFP vector as a template and a forward primer of SEQ ID NO: 3 together with a reverse primer of SEQ ID NO: 13 prepared to overlap with the nucleotide sequence of the N-terminus of GGBP. Likewise, GGBP gene was amplified by PCR using a chromosomal DNA, extracted from E. coli MG1655, as a template, and a forward primer of SEQ ID NO: 14 together with a reverse primer of SEQ ID NO: 15 containing a BamHI restriction sequence. […]
as §1, §2, §3
Target sequence in this assay (P0AEE5 24-332 with tags or gaps limits assumed): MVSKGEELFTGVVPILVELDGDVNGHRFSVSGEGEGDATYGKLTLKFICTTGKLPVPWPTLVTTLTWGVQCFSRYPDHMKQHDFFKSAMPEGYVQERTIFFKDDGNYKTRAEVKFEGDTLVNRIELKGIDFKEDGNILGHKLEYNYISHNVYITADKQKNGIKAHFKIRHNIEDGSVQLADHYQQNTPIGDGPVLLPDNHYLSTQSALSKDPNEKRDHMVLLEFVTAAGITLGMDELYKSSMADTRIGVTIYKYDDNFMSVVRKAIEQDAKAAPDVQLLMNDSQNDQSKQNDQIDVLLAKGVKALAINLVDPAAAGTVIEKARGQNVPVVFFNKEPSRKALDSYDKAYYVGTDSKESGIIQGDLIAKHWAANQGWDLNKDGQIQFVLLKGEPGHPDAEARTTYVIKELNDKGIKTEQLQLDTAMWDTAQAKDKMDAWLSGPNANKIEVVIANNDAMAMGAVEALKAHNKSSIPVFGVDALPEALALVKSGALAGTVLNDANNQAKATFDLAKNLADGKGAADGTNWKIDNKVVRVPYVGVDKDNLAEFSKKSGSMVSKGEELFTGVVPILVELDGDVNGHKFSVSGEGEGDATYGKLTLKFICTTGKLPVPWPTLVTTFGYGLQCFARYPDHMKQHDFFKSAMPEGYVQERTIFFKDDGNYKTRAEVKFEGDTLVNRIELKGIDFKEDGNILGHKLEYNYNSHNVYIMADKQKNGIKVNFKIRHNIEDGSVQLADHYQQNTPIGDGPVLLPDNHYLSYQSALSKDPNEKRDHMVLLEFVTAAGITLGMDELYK

[6] = cited from earlier work

Sequence of CalsBY-QV allose FRET biosensor: fusion protein ECFP-ALBP-EYFP of E. coli MG1655 ALBP (allose-binding protein) (P39265 24-311): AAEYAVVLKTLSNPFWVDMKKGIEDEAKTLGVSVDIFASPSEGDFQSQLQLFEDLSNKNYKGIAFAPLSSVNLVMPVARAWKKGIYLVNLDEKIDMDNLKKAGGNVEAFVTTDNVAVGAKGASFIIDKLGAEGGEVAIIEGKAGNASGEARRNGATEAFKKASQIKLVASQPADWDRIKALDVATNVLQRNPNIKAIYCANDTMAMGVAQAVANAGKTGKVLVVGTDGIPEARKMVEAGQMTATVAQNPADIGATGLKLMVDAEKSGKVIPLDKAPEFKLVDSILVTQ

For OC1OC[C@H](O)[C@H](O)[C@H]1O (stereo partly shown) [arabinose], the Kd [1] was 67 ± 4 µM.

For OC[C@H]1OC(O)[C@H](O)[C@@H](O)[C@H]1O (stereo partly shown) [galactose], the affinity [2] was “very high affinity” and the affinity [3] was “very high affinity”.

For OC1OC[C@@H](O)[C@@H](O)[C@H]1O (stereo partly shown) [ribose], the “specificity for other sugars” value [4] was “reduced specificity”.

In the case of OC[C@H]1OC(O)[C@H](O)[C@@H](O)[C@@H]1O (stereo partly shown) [glucose], the Kd [5] is reported as 9.2 ± 0.5 µM.

B1: ARBP: E. coli periplasmic arabinose-binding protein (protein, UniProt P02924 24-329, looked up)
L-arabinose-binding …: ENLKLGFLVKQPEEPWFQTEWKFADKAGKDLGFEVIKIAVPDGEKTLNAIDSLAASGAKGFVICTPDPKLGSAIVAKARGYDMKVIAVDDQFVNAKGKPMDTVPLVMMAATKIGERQGQELYKEMQKRGWDVKESAVMAITANELDTARRRTTGSMDALKAAGFPEKQIYQVPTKSNDIPGAFDAANSMLVQHPEVKHWLIVGMNDSTVLGGVRATEGQGFKAADIIGIGINGVDAVSELSKAQATGFYGSLLPSPDVHGYKSSEMLYNWVAKDVEPPKFTEVTDVVLITRDNFKEELEKKGLGGK
For B1, the “Unfolding temperature in the presence of ligand” value ([6]; 1 mM arabinose (ARBP) / glucose (GGBP)) is listed as 59 °C and the “Unfolding temperature in the absence of ligand” value ([6]; no arabinose (ARBP) / no glucose (GGBP)) is listed as 53.5 °C.
